This is an account of results in patent publication US20060106014A1, “Methods for treating diabetes” (priority 2004, published 2006).

In one experiment the target is T1, 5-lipoxygenase (Homo sapiens, UniProt P09917).
T1 sequence (P09917 1-674): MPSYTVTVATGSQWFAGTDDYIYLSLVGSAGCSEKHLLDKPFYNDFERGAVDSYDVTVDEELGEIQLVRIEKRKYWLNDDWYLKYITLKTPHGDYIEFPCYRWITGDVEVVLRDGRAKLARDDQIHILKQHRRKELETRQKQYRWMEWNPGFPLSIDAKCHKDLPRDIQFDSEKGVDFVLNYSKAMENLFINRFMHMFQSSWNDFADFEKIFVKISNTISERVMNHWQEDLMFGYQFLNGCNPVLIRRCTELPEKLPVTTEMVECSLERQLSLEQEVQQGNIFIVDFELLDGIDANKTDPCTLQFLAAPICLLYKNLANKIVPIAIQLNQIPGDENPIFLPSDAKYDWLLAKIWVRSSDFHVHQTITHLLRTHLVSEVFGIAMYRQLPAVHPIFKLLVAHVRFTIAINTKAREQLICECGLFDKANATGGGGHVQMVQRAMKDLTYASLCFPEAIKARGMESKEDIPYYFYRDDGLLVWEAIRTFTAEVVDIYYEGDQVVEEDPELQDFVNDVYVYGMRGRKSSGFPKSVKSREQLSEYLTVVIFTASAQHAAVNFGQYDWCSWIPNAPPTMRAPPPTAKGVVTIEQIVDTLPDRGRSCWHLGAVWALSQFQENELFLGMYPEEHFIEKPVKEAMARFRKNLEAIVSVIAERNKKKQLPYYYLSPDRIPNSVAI
Kind of experiment: 5-Lipoxygenase Enzyme Assay (colorimetric, ferric oxidation of xylenol orange). As to conditions: read-out: in vitro IC50 value in a 5-LO enzyme assay. Details: purchased Cayman 60402. It counts as biochemical. On the procedure:
This procedure was used for measuring the enzymatic activity of human recombinant 5-lipoxygenase using a colorimetric method based on the ferric oxidation of xylenol orange.
(§1) The test compound and/or vehicle was added to 0.5 μL 5-lipoxygenase in 50 mM Tris-HCl buffer, pH 7.4. The reaction was initiated by addition of 70 μM arachidonic acid in Tris-HCl buffer, pH 7.4, and terminated after a 10 minute incubation at room temperature by addition of FOX reagent (25 mM sulphuric acid, 100 μM xylenol orange, 100 μM iron (II) sulphate, methanol:water 9:1). The yellow color of acidified xylenol orange was converted to a blue color by the lipid hydroperoxide-mediated oxidation of Fe^2+ ions and the interaction of the resulting Fe^3+ ions with the dye. The complex was allowed to form during a 1 hour incubation at room temperature with shaking. Absorbance of the Fe^3+ complex was then measured at 620 nm using a spectrophotometer. Negative controls contained enzyme during the incubation step but substrate was not added until after the FOX reagent.

Experiment [1] addresses T2, porcine leukocyte 12/15-lipoxygenase (Sus scrofa, UniProt P16469).
T2 construct: purchased Cayman 60300
T2 sequence (P16469 1-663): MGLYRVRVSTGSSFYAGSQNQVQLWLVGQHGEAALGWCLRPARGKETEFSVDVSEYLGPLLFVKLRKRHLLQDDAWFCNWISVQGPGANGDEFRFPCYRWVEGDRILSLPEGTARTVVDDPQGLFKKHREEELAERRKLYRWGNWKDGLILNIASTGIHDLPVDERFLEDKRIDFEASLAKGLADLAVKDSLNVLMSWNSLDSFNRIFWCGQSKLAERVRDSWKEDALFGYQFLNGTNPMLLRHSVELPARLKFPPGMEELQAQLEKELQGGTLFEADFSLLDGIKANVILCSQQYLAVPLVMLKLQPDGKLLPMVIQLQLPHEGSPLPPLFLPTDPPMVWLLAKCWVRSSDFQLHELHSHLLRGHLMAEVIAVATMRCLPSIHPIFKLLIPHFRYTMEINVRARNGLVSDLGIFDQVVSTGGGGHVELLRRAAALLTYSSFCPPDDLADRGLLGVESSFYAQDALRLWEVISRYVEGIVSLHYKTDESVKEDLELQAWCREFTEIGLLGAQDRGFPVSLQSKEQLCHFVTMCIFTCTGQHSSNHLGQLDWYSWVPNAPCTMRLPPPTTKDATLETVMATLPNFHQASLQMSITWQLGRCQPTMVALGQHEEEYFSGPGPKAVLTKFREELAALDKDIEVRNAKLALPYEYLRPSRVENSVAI
Kind of experiment: 12/15-Lipoxygenase Enzyme Assay (colorimetric, ferric oxidation of xylenol orange). As to conditions: read-out: in vitro IC50 value in a 12/15-LO enzyme assay. The experiment is classed as biochemical. How it is done:
This procedure was used for measuring the enzymatic activity of porcine leukocyte 12/15-lipoxygenase using a colorimetric method based on the ferric oxidation of xylenol orange.
as §1, with “vehicle were” for “vehicle was”, “to 1.3” for “to 0.5”, “μL 12/15-lipoxygenase” for “μL 5-lipoxygenase”, “spectrophotometer.” for “spectrophotometer. Negative controls contained enzyme during the incubation step but substrate was not added until after the FOX reagent.”
Negative controls contained enzyme during the incubation step but substrate was not added until after the FOX reagent.

SMILES strings stand for the structures.

For `Oc1ccc(C=Cc2ccc(Br)cc2)cc1O` [4-[2-(4-bromo-phenyl)-vinyl]-benzene-1,2-diol], the IC50 (at 5-lipoxygenase; in experiment [1]) was under 5 µM each time.
Take `Cc1c(C)c2c(c(C)c1O)CCC(C)(c1cc(F)c(O)c(F)c1)O2` (stereo not drawn) [2-(3,5-difluoro-4-hydroxyphenyl)-2,5,7,8-tetramethylchroman-6-ol]: the IC50 (on 5-lipoxygenase; in experiment [1]) was under 5 µM each time.
On to `C=CCSCc1c(O)c(C)c(C)c2c1CCC(C)(C)O2` [5-allylsulfanylmethyl-2,2,7,8-tetramethyl-chroman-6-ol], for which the IC50 (on 5-lipoxygenase; in experiment [1]) was under 5 µM throughout.
For `COCOc1ccc(C=Cc2ccc(C(C)(C)C)cc2)cc1OCOC` [4-[2-(4-tert-Butyl-phenyl)-vinyl]-1,2-bis-methoxymethoxy-benzene], the IC50 (at 5-lipoxygenase; in experiment [1]) was under 5 µM in each case.
For the compound `CC(C)=CCc1cc(C=Cc2ccc(N(C)C)cc2)cc(O)c1O` [5-(4-(dimethylamino)styryl)-3-(3-methylbut-2-enyl)benzene-1,2-diol], the IC50 (on 5-lipoxygenase; in experiment [1]) was under 5 µM throughout.
As to `Cc1c(O)c(C)c2c(c1CCC(C)C)OC(C)(C)CC2` [8-isopentyl-2,2,5,7-tetramethylchroman-6-ol], the IC50 (on 5-lipoxygenase; in experiment [1]) was under 5 µM in each case.
With `Cc1c(O)c(C)c2c(c1I)OC(C)(C)CC2` [8-iodo-2,2,5,7-tetramethylchroman-6-ol], the IC50 (at 5-lipoxygenase; in experiment [1]) was under 5 µM throughout.
`Cc1c(C)c2c(c(C)c1O)CCC(C)(c1cccs1)O2` (stereo not drawn) [2,5,7,8-tetramethyl-2-(thiophen-2-yl)chroman-6-ol]: the IC50 (at 5-lipoxygenase; in experiment [1]) was under 5 µM throughout.
Consider `CNc1ccc(C=Cc2cc(O)c(O)c(CC=C(C)C)c2)cc1` [5-(4-(methylamino)styryl)-3-(3-methylbut-2-enyl)benzene-1,2-diol], for which the IC50 (at 5-lipoxygenase; in experiment [1]) was under 5 µM in each case.
`Cc1c(O)cc2c(c1C)OC(C)(CCCl)CC2` (stereo not drawn) [2-(2-chloro-ethyl)-2,7,8-trimethyl-chroman-6-ol]: the IC50 (at 5-lipoxygenase; in experiment [1]) was under 5 µM each time.
As for `Cc1c(O)c(CCC(C)C)c(C)c2c1CCC(C)(C)O2` [2,2,5,8-tetramethyl-7-(3-methyl-butyl)-chroman-6-ol], the IC50 (on 5-lipoxygenase; in experiment [1]) was under 5 µM throughout.
Regarding `Cc1c(O)c(Br)c(C)c2c1CCC(C)(C)O2` [7-bromo-2,2,5,8-tetramethyl-chroman-6-ol], the IC50 (on 5-lipoxygenase; in experiment [1]) was under 5 µM in each case.
On to `Cc1c(C)c2c(c(-c3ccco3)c1O)CCC(C)(C)O2` [5-(furan-2-yl)-2,2,7,8-tetramethylchroman-6-ol], for which the IC50 (on 5-lipoxygenase; in experiment [1]) was under 5 µM each time.
On to `COCOc1ccc(C=Cc2ccc(C(F)(F)F)cc2)cc1OCOC` [1,2-bis-methoxymethoxy-4-[2-(4-trifluoromethyl-phenyl)-vinyl]-benzene], for which the IC50 (at 5-lipoxygenase; in experiment [1]) was under 5 µM throughout.
Consider `N#Cc1ccc(C=Cc2ccc(O)c(O)c2O)cc1` [4-[2-(2,3,4-trihydroxy-phenyl)-vinyl]-benzonitrile], for which the IC50 (on 5-lipoxygenase; in experiment [1]) was under 5 µM each time.
As for `N#Cc1ccc(CCc2cc(O)c(O)c(O)c2)cc1` [4-(3,4,5-trihydroxyphenethyl)benzonitrile], the IC50 (on 5-lipoxygenase; in experiment [1]) was under 5 µM each time.
On to `O=[N+]([O-])c1ccc(CCc2cc(O)c(O)c(O)c2)cc1` [5-(4-nitrophenethyl)benzene-1,2,3-triol], for which the IC50 (on 5-lipoxygenase; in experiment [1]) was under 5 µM in each case.
For `CC(=O)Nc1ccc(C=Cc2ccc(O)c(O)c2)cc1` [N-{4-[2-(3,4-dihydroxy-phenyl)-vinyl]-phenyl}acetamide], the IC50 (at 5-lipoxygenase; in experiment [1]) was under 5 µM each time.
On to `Oc1ccc(C=Cc2ccc(O)c(O)c2)c(O)c1` [4-(2,4-dihydroxystyryl)benzene-1,2-diol], for which the IC50 (at 5-lipoxygenase; in experiment [1]) was under 5 µM each time.
On to `COC(=O)c1ccc(C=Cc2ccc(O)c(O)c2)cc1` [4-[2-(3,4-dihydroxy-phenyl)-vinyl]-benzoic acid methyl ester], for which the IC50 (at 5-lipoxygenase; in experiment [1]) was under 5 µM throughout.
`Cc1c(C)c2c(c(Cl)c1O)CCC(C)(C)O2` [5-chloro-2,2,7,8-tetramethylchroman-6-ol]: the IC50 (at 5-lipoxygenase; in experiment [1]) was under 5 µM in each case.
As for `Cc1c(C)c2c(c(C)c1O)CCC(C)(C=Cc1ccccc1)O2` (stereo not drawn) [2,5,7,8-tetramethyl-2-styrylchroman-6-ol], the IC50 (on 5-lipoxygenase; in experiment [1]) was under 5 µM throughout.
As to `Cc1cc(C=Cc2ccc([N+](=O)[O-])cc2)cc(C)c1O` [2,6-dimethyl-4-[2-(4-nitro-phenyl)-vinyl]-phenol], the IC50 (on 5-lipoxygenase; in experiment [1]) was under 5 µM throughout.
Consider `COc1c(O)c(C)c(C)c2c1CCC(C)(C)O2` [5-methoxy-2,2,7,8-tetramethylchroman-6-ol], for which the IC50 (on 5-lipoxygenase; in experiment [1]) was under 5 µM throughout.
In the case of `O=S(=O)(c1ccc(C=Cc2ccc(O)c(O)c2)cc1)N1CCCCC1` [4-{2-[4-(piperidine-1-sulfonyl)-phenyl]-vinyl}benzene-1,2-diol], the IC50 (at 5-lipoxygenase; in experiment [1]) was under 5 µM throughout.
In the case of `O=[N+]([O-])c1ccc(C=Cc2ccc(O)c(O)c2)cc1` [4-[2-(4-nitro-phenyl)-vinyl]-benzene-1,2-diol], the IC50 (on 5-lipoxygenase; in experiment [1]) was under 5 µM throughout.
On to `Cc1c(O)c(C)c(C(F)(F)F)c2c1CCC(C)(C)O2` [2,2,5,7-tetramethyl-8-(trifluoromethyl)chroman-6-ol], for which the IC50 (at 5-lipoxygenase; in experiment [1]) was under 5 µM in each case.
Turning to `CS(=O)(=O)Nc1ccc(C=Cc2ccc(O)c(O)c2)cc1` [N-{4-[2-(3,4-dihydroxy-phenyl)-vinyl]-phenyl}methanesulfonamide], the IC50 (on 5-lipoxygenase; in experiment [1]) was under 5 µM each time.
In the case of `COC(=O)c1ccc(C=Cc2ccc(O)c(O)c2CC=C(C)C)cc1` [4-{2-[3,4-dihydroxy-2-(3-methyl-but-2-enyl)-phenyl]-vinyl}benzoic acid methyl ester], the IC50 (at 5-lipoxygenase; in experiment [1]) was under 5 µM throughout.
As for `CC1(C)CCc2cc(O)c3cccc(O)c3c2O1` [2,2-dimethyl-3,4-dihydro-2H-benzo[h]chromene-6,10-diol], the IC50 (on 5-lipoxygenase; in experiment [1]) was under 5 µM in each case.
